Seven compounds from US10065924B2, “Preparation and biological evaluation of viridicatumtoxin analogs” (priority 2014, dated 2018) can be followed below.

In brackets after ≈: the same amount, converted by molar mass.

Assay [1] relates to Enterococcus faecalis S613. Put plainly: Micro-broth MIC assay, E. faecalis S613. It counts as cell-based. The note with it: for MIC: Enterococcus faecalis, S613, read-out: Minimum Inhibitory Concentration (MIC) E. faecalis S613; for Minimum Inhibitory Concentration (MIC) E. faecalis S613: Gram-(+), clinical strain, triplicate, no growth after 16-24 hours at 37° C. On the procedure:
(§1) Four clinical strains were used for these studies, Enterococcus faecalis S613, Enterococcus faecium isolate 105, Methicillin-Resistant Staphylococcus aureus 371 (MRSA 371) and Acinetobacter baumannii AB210. Enterococcus strains were cultured in 80% Lysogeny Broth (LB) & 20% Brain Heart Infusion (BHI). MRSA 371 and AB210 were cultured in 100% LB.
(§2) Micro-broth MIC assays were performed in triplicate using 96-well plates. Wells were filled with 150 μL of broth media and inoculated with 2 μL of stationary phase culture. The concentration of the test antibiotics increased in 2-fold increments and ranged from 0.25-128 μg/mL. Plates were incubated overnight at 37° C. and the MICs were defined as the lowest drug concentration that had no growth after 16-24 hours.

The subject of another assay is E. faecium 501. Put plainly: Micro-broth MIC assay, E. faecium 501. It counts as cell-based, Enterococcus faecium. The settings on record: Gram-(+), clinical strain, triplicate, no growth after 16-24 hours at 37° C.; for MIC: Enterococcus faecium, 501, read-out: Minimum Inhibitory Concentration (MIC) E. faecium 501.
For assay [2], the system named is Methicillin-Resistant Staphylococcus aureus 371 (MRSA 371). As to the kind of experiment: Micro-broth MIC assay, MRSA 371. The format is cell-based. The note with it: for MIC: Staphylococcus aureus, MRSA, read-out: Minimum Inhibitory Concentration (MIC) MRSA 371; for Minimum Inhibitory Concentration (MIC) MRSA 371: Gram-(+), clinical strain, triplicate, no growth after 16-24 hours at 37° C. On the procedure:
as §1, §2

Assay [3] concerns Acinetobacter baumannii AB210. As to the kind of experiment: Micro-broth MIC assay, A. baumannii AB210. The note with it: for MIC: Acinetobacter baumannii, AB210, read-out: Minimum Inhibitory Concentration (MIC) A. baumannii AB210; for Minimum Inhibitory Concentration (MIC) A. baumannii AB210: Gram-(−), clinical strain, triplicate, no growth after 16-24 hours at 37° C. It counts as cell-based. On the procedure: as §1, §2

`COc1cc(O)c2c(O)c3c(c4c2c1[C@]1(C4)C(C)=CCCC1(C)C)C(=O)[C@H]1CC(O)=C(C(N)=O)C(=O)[C@@]1(O)C3=O` (racemic) [(±)-V2]: the MIC worked out at 0.5 µg/mL (≈ 0.913 µM) in assay [1], 0.5 µg/mL (≈ 0.913 µM) in the assay on E. faecium 501, 2 µg/mL (≈ 3.65 µM) in assay [2] and 64 µg/mL (≈ 117 µM) in assay [3].

For the compound `COc1cc(O)c2c(O)c3c(c4c2c1[C@@]1(C4)C(C)=CCCC1(C)C)C(=O)[C@H]1CC(O)=C(C(N)=O)C[C@@]1(O)C3=O` (racemic) [(±)-V3], the MIC in assay [1] amounted to 4 µg/mL (≈ 7.5 µM); in the assay on E. faecium 501, 2 µg/mL (≈ 3.75 µM); in assay [2], 8 µg/mL (≈ 15 µM); in assay [3], 64 µg/mL (≈ 120 µM).

In the case of `COc1cc(OC)c2c(O)c3c(c4c2c1[C@@]1(C4)C(C)=CCCC1(C)C)C(=O)[C@H]1CC(O)=C(C(N)=O)C[C@@]1(O)C3=O` (racemic) [(±)-V4], the MIC in assay [1] turned out to be 4 µg/mL (≈ 7.3 µM); in the assay on E. faecium 501, 4 µg/mL (≈ 7.3 µM); in assay [2] it was 4 µg/mL (≈ 7.3 µM); in assay [3] it was 64 µg/mL (≈ 117 µM).

With `COc1cc(O)c2c(O)c3c(c4c2c1[C@]1(C4)C(C)=CCCC1(C)C)[C@H](O)[C@H]1CC(O)=C(C(N)=O)C(=O)[C@@]1(O)C3=O` (racemic) [(±)-V5], the MIC in assay [1] was 1 µg/mL (≈ 1.82 µM); with E. faecium 501 it was 1 µg/mL (≈ 1.82 µM); in assay [2], 8 µg/mL (≈ 14.6 µM); in assay [3], 64 µg/mL (≈ 116 µM).

Regarding `COc1cc(O)c2c(O)c3c(c4c2c1[C@]1(C4)C(C)=CCCC1(C)C)[C@@H](O)[C@H]1CC(O)=C(C(N)=O)C(=O)[C@@]1(O)C3=O` (racemic) [(±)-V6], the MIC in assay [1] came out at 0.5 µg/mL (≈ 0.91 µM); with E. faecium 501 it was 0.5 µg/mL (≈ 0.91 µM); in assay [2], 2 µg/mL (≈ 3.64 µM); in assay [3], 64 µg/mL (≈ 116 µM).

As for `COc1cc(O)c2c(O)c3c(c4c2c1[C@]1(C4)C(C)=CCCC1(C)C)[C@H](O)[C@@]1(O)CC(=O)C(C(N)=O)=C(O)[C@@]1(O)C3=O` [(+)-2, viridicatumtoxin A], in assay [1], the “Minimum Inhibitory Concentration (MIC) E. faecalis S613” value amounted to 1 µg/mL. Besides, the “Minimum Inhibitory Concentration (MIC) E. faecium 501” value in the assay with E. faecium 501 turned out to be 1 µg/mL. Moreover, in assay [2], the “Minimum Inhibitory Concentration (MIC) MRSA 371” value came to 4 µg/mL. For the same compound, the “Minimum Inhibitory Concentration (MIC) A. baumannii AB210” value in assay [3] is 64 µg/mL.

As to “viridicatumtoxin B [(±)-1, reference compound]”, the “Minimum Inhibitory Concentration (MIC) E. faecalis S613” value in assay [1] was 1 µg/mL. The “Minimum Inhibitory Concentration (MIC) E. faecium 501” value in the assay on E. faecium 501 was 0.5 µg/mL. Further, in assay [2], the “Minimum Inhibitory Concentration (MIC) MRSA 371” value is 4 µg/mL. For the same compound, the “Minimum Inhibitory Concentration (MIC) A. baumannii AB210” value in assay [3] was 64 µg/mL.
